The source of these data is patent US20210322297A9, “COSMETIC COMPOSITIONS FOR PROTECTION AGAINST LIGHT-INDUCED DAMAGES” (priority 2018, published 2021).

Molecules are shown by their SMILES. Several values for one entry are separate records, joined by “and”; a condition that tells them apart may be missing. Equal values may be shown once.

The test system of the test is Human keratinocytes (HaCAT). As to the kind of experiment: Carbonyl Score analysis: blue light (460 nm)-induced protein oxidative damage (carbonylation). The test is classed as cell-based. The text has this: Human keratinocytes (HaCAT) were irradiated in the presence or absence of a composition (C-1) comprising equal weight amounts of extracts (Q), (GS) and (GT) (VitakeloxTM) using an irradiation system available from OxiProteomics®. A solution of N-acetyl-cysteine was used as positive control of protection. Just after irradiation, proteins were extracted from the cells and analyzed. Carbonylated proteins were labeled with specific functionalized fluorescent probes and the resulting samples were resolved by high-resolution electrophoresis. Total proteins were post-stained with SyproTM Ruby protein gel stain. A Carbonyl (protein damage) Score was obtained for each sample after normalization of the fluorescent signal for carbonylated proteins by total proteins. A significant increase in protein oxidative damage was observed upon blue light irradiation. This increase was prevented in the presence of composition (C-1) at two different concentrations (0.01% and 0.005% w/v) and with two times of treatment (6 hours and 24 hours). HaCaT cells were cultured in calcium-free DMEM (Dulbecco's Modified Eagle Medium), with 10% SVF […], at 37° C. and humid atmosphere, supplemented with 5% CO2. Cells were seeded (500.000 cells/well) at day 0 (D0) in multi-well plates containing culture medium and distributed in 8 experimental groups as depicted in Table 1. On day 1 (D1), two solutions of composition (C-1) having two different concentrations (0.01% and 0.005%) were prepared by solubilisation of the composition in the culture medium. Experimental groups 4 and 6 were incubated for 24 hours (t2) with the solutions prior to irradiation. At day 2 (D2), experimental groups 3 and 5 were incubated for 6 hours (t1) prior to blue light irradiation. Groups 7 and 8 were incubated with a solution of NAC (N-acetyl-cysteine) for 6 and 24 hours. On day 2 (D2), the cells were washed and a stress was induced by irradiation with Blue Light (LED source, emission peak at λ=460 nm), using an OxiProteomics® irradiation system. Group 1 was not irradiated. Just after irradiation, cells were collected, snap-frozen and stored at -80° C. for the analysis. Proteins were extracted from cells, quantified by the Bradford method and split into equal amounts for analyses. […] After extraction and solubilisation, proteins in samples were quantified by the Bradford method using calibrated BSA (bovine serum albumin) as standard (Bradford M. Anal. Biochem., 72, 248, 1976). […] Proteins were fixed to the gel and the carbonylated proteins were evidenced by fluorescence scanning. […] Quantification was obtained from each sample, both for carbonylated and total proteins. […]

On to `CC(=O)N[C@@H](CS)C(=O)O` [NAC, N-acetyl-cysteine], for which the “Carbonyl Score” value (NAC 6 h incubation before blue light irradiation, group G-7, carbonylated signal normalized by total protein signal) was 0.734 and 0.742 and 0.657; the “Carbonyl Score” value (NAC 24 h incubation before blue light irradiation, group G-8, carbonylated signal normalized by total protein signal) was 0.639 and 0.700 and 0.631. The Oxidized proteins was 12101.36 and 11379.65 and 10415.94 (NAC 6 h incubation before blue light irradiation, group G-7, densitometric signal per replicate); 9126.82 and 11501.94 and 10859.53 (NAC 24 h incubation before blue light irradiation, group G-8, densitometric signal per replicate).
